Assay results taken from the NIST ThermoML archive (doi:10.1016/j.jct.2006.03.018).
± gives the expanded uncertainty stated by the source.

Columns and labels:
[1] = 101 kPa, Liquid
[2] = refractive index (Na D-line) (dimensionless); settings: 101.33 kPa, Liquid
[3] = refractive index (Na D-line) (dimensionless); xn = mol fraction of the nth substance listed; settings: 101 kPa, Liquid
[4] = xn = mol fraction of the nth substance listed; settings: 101 kPa, Liquid

CC(C)CCO [3-methylbutan-1-ol]
Settings	mass density, 298.15 K [kg/m3]	mass density, 303.15 K [kg/m3]	mass density, 308.15 K [kg/m3]	refractive index, 298.15 K	refractive index, 303.15 K	speed of sound, 298.15 K [m/s]	viscosity, 298.15 K [mPa·s]	viscosity, 303.15 K [mPa·s]
[1]	807.2 ± 6.9	803.45 ± 7	791.86 ± 7.3	–	–	1241 ± 43	3.835 ± 0.44	3.261 ± 0.38
[2]	–	–	–	1.405 ± 0.0025	1.403 ± 0.0025	–	–	–

CCCCO [butan-1-ol]
Settings	mass density, 298.15 K [kg/m3]	mass density, 303.15 K [kg/m3]	mass density, 308.15 K [kg/m3]	refractive index, 298.15 K	refractive index, 303.15 K	refractive index, 308.15 K	speed of sound, 298.15 K [m/s]	viscosity, 298.15 K [mPa·s]	viscosity, 303.15 K [mPa·s]	viscosity, 308.15 K [mPa·s]
[1]	806.12 ± 14	802.28 ± 14	798.41 ± 14	–	–	–	1246 ± 43	2.585 ± 0.3	2.284 ± 0.27	1.981 ± 0.24
[2]	–	–	–	1.3968 ± 0.005	1.3944 ± 0.005	1.3923 ± 0.005	–	–	–	–

CC(C)CCO [3-methylbutan-1-ol] + COc1ccccc1
Settings	mass density, [4] [kg/m3]	refractive index, [3]	speed of sound, [4] [m/s]	viscosity, [4] [mPa·s]
298.15 K, x2 = 0	807.2 ± 6.9	1.405 ± 0.0025	1241 ± 43	3.835 ± 0.44
298.15 K, x2 = 0.103	825.87 ± 6.5	1.4159 ± 0.0025	1258 ± 44	2.766 ± 0.32
298.15 K, x2 = 0.2001	843.32 ± 6.1	1.4269 ± 0.0025	1275 ± 44	2.153 ± 0.25
298.15 K, x2 = 0.3022	861.74 ± 5.6	1.4378 ± 0.0025	1292 ± 44	1.736 ± 0.21
298.15 K, x2 = 0.3995	879.31 ± 5.2	1.4487 ± 0.0025	1309 ± 45	1.43 ± 0.17
298.15 K, x2 = 0.4944	896.5 ± 4.8	1.4579 ± 0.0025	1327 ± 45	1.254 ± 0.16
298.15 K, x2 = 0.5995	915.66 ± 4.4	1.4688 ± 0.0025	1344 ± 46	1.136 ± 0.14
298.15 K, x2 = 0.6915	932.47 ± 4	1.4797 ± 0.0025	1361 ± 46	1.046 ± 0.13
298.15 K, x2 = 0.8022	952.8 ± 3.5	1.4906 ± 0.0025	1378 ± 47	1.005 ± 0.13
298.15 K, x2 = 0.9044	971.6 ± 3.1	1.5015 ± 0.0025	1394 ± 47	0.956 ± 0.12
303.15 K, x2 = 0	803.45 ± 7	1.403 ± 0.0025	–	3.261 ± 0.38
303.15 K, x2 = 0.103	821.94 ± 6.6	1.4138 ± 0.0025	–	2.408 ± 0.28
303.15 K, x2 = 0.2001	839.25 ± 6.2	1.4247 ± 0.0025	–	1.885 ± 0.23
303.15 K, x2 = 0.3022	857.55 ± 5.7	1.4355 ± 0.0025	–	1.544 ± 0.19
303.15 K, x2 = 0.3995	875.01 ± 5.3	1.4463 ± 0.0025	–	1.253 ± 0.16
303.15 K, x2 = 0.4944	892.11 ± 4.9	1.4575 ± 0.0025	–	1.135 ± 0.14
303.15 K, x2 = 0.5995	911.16 ± 4.5	1.468 ± 0.0025	–	1.03 ± 0.13
303.15 K, x2 = 0.6915	929.01 ± 4.1	1.4788 ± 0.0025	–	0.956 ± 0.12
303.15 K, x2 = 0.8022	948.15 ± 3.6	1.4896 ± 0.0025	–	0.938 ± 0.12
303.15 K, x2 = 0.9044	966.9 ± 3.2	1.5005 ± 0.0025	–	0.881 ± 0.11
308.15 K, x2 = 0	791.86 ± 7.3	–	–	–
308.15 K, x2 = 0.1036	808.48 ± 6.9	1.3966 ± 0.02	–	1.242
308.15 K, x2 = 0.2003	827.18 ± 6.5	1.4129 ± 0.02	–	1.078
308.15 K, x2 = 0.3055	848.11 ± 6	1.4287 ± 0.02	–	0.961
308.15 K, x2 = 0.4053	867.53 ± 5.5	1.4426 ± 0.02	–	0.879
308.15 K, x2 = 0.5096	888.55 ± 5	1.4542 ± 0.02	–	0.838
308.15 K, x2 = 0.6015	906.1 ± 4.6	1.4673 ± 0.02	–	0.821
308.15 K, x2 = 0.7071	924.94 ± 4.2	1.4793 ± 0.02	–	0.802
308.15 K, x2 = 0.8023	942.78 ± 3.8	1.4897 ± 0.02	–	0.795
308.15 K, x2 = 0.9044	960.74 ± 3.4	1.499 ± 0.02	–	0.792

COc1ccccc1 [anisole] + CCO
Settings	mass density, 298.15 K [kg/m3]	mass density, 303.15 K [kg/m3]	mass density, 308.15 K [kg/m3]	refractive index, 298.15 K	refractive index, 303.15 K	refractive index, 308.15 K	speed of sound, 298.15 K [m/s]	viscosity, 298.15 K [mPa·s]	viscosity, 303.15 K [mPa·s]	viscosity, 308.15 K [mPa·s]
[3], x1 = 0.0998	–	–	–	1.3856 ± 0.005	1.3838 ± 0.005	1.3814 ± 0.005	–	–	–	–
[3], x1 = 0.1985	–	–	–	1.4085 ± 0.005	1.4066 ± 0.005	1.4039 ± 0.005	–	–	–	–
[3], x1 = 0.2976	–	–	–	1.4284 ± 0.005	1.4261 ± 0.005	1.4241 ± 0.005	–	–	–	–
[3], x1 = 0.3973	–	–	–	1.4459 ± 0.005	1.4428 ± 0.005	1.4402 ± 0.005	–	–	–	–
[3], x1 = 0.5008	–	–	–	1.461 ± 0.005	1.4586 ± 0.005	1.4567 ± 0.005	–	–	–	–
[3], x1 = 0.5968	–	–	–	1.4737 ± 0.005	1.4711 ± 0.005	1.4695 ± 0.005	–	–	–	–
[3], x1 = 0.7015	–	–	–	1.4864 ± 0.005	1.4842 ± 0.005	1.4816 ± 0.005	–	–	–	–
[3], x1 = 0.7935	–	–	–	1.4955 ± 0.005	1.4934 ± 0.005	1.4907 ± 0.005	–	–	–	–
[3], x1 = 0.9014	–	–	–	1.5046 ± 0.005	1.5031 ± 0.005	1.5008 ± 0.005	–	–	–	–
[3], x1 = 1	–	–	–	1.5137 ± 0.005	1.5113 ± 0.005	1.5088 ± 0.005	–	–	–	–
[4], x1 = 0.0998	822.6 ± 3.2	818.11 ± 3.3	813.62 ± 3.3	–	–	–	1178 ± 83	0.995 ± 0.13	0.908 ± 0.12	0.831 ± 0.11
[4], x1 = 0.1985	852.71 ± 2.9	848.12 ± 2.9	843.52 ± 3	–	–	–	1226 ± 86	0.934 ± 0.12	0.851 ± 0.11	0.777 ± 0.1
[4], x1 = 0.2976	878.53 ± 2.5	873.84 ± 2.6	869.14 ± 2.7	–	–	–	1277 ± 88	0.91 ± 0.12	0.829 ± 0.11	0.768 ± 0.1
[4], x1 = 0.3973	900.47 ± 2.3	895.73 ± 2.4	890.99 ± 2.4	–	–	–	1290 ± 89	0.881 ± 0.11	0.813 ± 0.11	0.747 ± 0.099
[4], x1 = 0.5008	920.46 ± 2.1	915.68 ± 2.1	910.89 ± 2.2	–	–	–	1301 ± 89	0.882 ± 0.11	0.807 ± 0.11	0.749 ± 0.1
[4], x1 = 0.5968	936.53 ± 1.9	931.73 ± 2	926.92 ± 2.1	–	–	–	1314 ± 90	0.849 ± 0.11	0.784 ± 0.1	0.727 ± 0.097
[4], x1 = 0.7015	952.42 ± 1.8	947.62 ± 1.9	942.81 ± 1.9	–	–	–	1326 ± 91	0.894 ± 0.12	0.832 ± 0.11	0.774 ± 0.1
[4], x1 = 0.7935	964.6 ± 1.7	960.01 ± 1.8	955.42 ± 1.8	–	–	–	1340 ± 91	0.897 ± 0.12	0.83 ± 0.11	0.772 ± 0.1
[4], x1 = 0.9014	977.99 ± 1.6	973.42 ± 1.7	968.84 ± 1.7	–	–	–	1355 ± 92	0.923 ± 0.12	0.858 ± 0.11	0.792 ± 0.1
[4], x1 = 1	989.15 ± 1.6	984.45 ± 1.6	979.73 ± 1.7	–	–	–	1412 ± 95	0.988 ± 0.13	0.913 ± 0.12	0.854 ± 0.11
